Laboratory results taken from patent publication US20100105644A1, “BOTANICAL COMPOSITION FOR ENHANCED SKIN REPAIR AND USES THEREOF” (The Regents of the University of Michigan, priority 2008, published 2010).

Assays:
[1] = In vitro activities of purified 6-gingerol compared with the crude ginger extract; settings: 6-gingerol purified to greater than 95%
Source text: The ginger root is also a source of multiple biologically active gingerol compounds, including 6-gingerol, 8-gingerol, 10-gingerol, 6-paradol, 6-shagoal and cassumunin. 6-gingerol is the most abundant analogue in the extract used here, and represents approximately 32% of the total extract. […] In addition, synthetic curcuminoids and synthetic gingerols are also available. One goal is to have a preparation that is inexpensive to prepare so that individuals at risk for non-healing skin ulcers can utilize it on a long-term basis as a wound preventative.

MMP-9 [2] = test: MMP-9 (gelatin zymography) in organ culture fluid of skin from topically treated healthy hairless rats; assay type: in vivo, rat; settings: 10% curcumin / 3% ginger extract topical, skin in organ culture 3 days, compared to control skin
Description: (§1) Wounding was performed under sterile conditions in a laminar flow hood. Wound size was determined daily by measuring the X-axis and Y-axis of the scabbed wound and calculating the area of the remaining scab. At the time of wound closure, animals were sacrificed and duplicate 6 mm skin punches were collected from wounded and healed skin. One biopsy was fixed in 10% buffered formalin and used for histological analysis. The other biopsy was put in organ culture for 3 days. Briefly, the skin was cut into pieces of approximately 2 mm on a side, and four-five such pieces were incubated for 3 days in 0.5 mL of a culture medium consisting of growth factor-free, serum-free, Keratinocyte Basal Medium (KBM) (Lonza, Walkersville, Md.). Before use, the culture medium was supplemented with Ca^2+ to a final concentration of 1.4 mM. At the end of the 3-day incubation period, the organ culture fluid was collected and assayed for soluble type I collagen by western blotting and MMP-2 and -9 gelatin zymography (see below).
(§2) Analysis of Metalloproteinases: MMP-2 and MMP-9: Gelatin-embedded enzymography (zymography) was used to assess levels of latent and active MMP-2 and MMP-9 in organ culture fluids. SDS-PAGE gels were prepared with the incorporation of gelatin (1 mg/mL) at the time of casting.

epidermal keratinocytes = test: Epidermal keratinocyte proliferation
Source text: There are several surprising and unexpected ways in which the combination of curcumin and 6-gingerol functions. First, these compounds promote collagen building in combination. On one hand, the ginger compound serves to raise the level of collagen-degrading enzymes, such as matrix metalloproteinases (MMPs), as one of its functions. On the other hand, the curcumin compound suppresses the MMP elevation stimulated by the ginger compound. Second, the combination promotes vascularization. During wound healing there is the need for new vascularization. However, new vessel growth needs to halt at some point and some vessels need to regress at a time when the wounded skin is fully healed. The ginger compound stimulates new vessel formation and the combination of curcumin and ginger extract result in a reduction in the number of capillaries in the skin at the end of the wound healing. This allows the skin to return to quiescence. Third, the combination promotes epidermal proliferation. Skin irritation is intimately associated with epidermal hyperplasia. The ginger compound stimulates epidermal keratinocyte proliferation while the curcumin compound suppresses ginger extract-induced keratinocyte growth. This may be the underlying factor responsible for the absence of irritation by the combination, for example, as compared to irritation observed with retinoid therapy. […]

type I collagen [3] = test: Soluble type I collagen (Western blot) in organ culture fluid of healed wound skin, Temovate rat model; assay type: in vivo
Description: Wounding was performed under sterile conditions in a laminar flow hood. Wound size was determined daily by measuring the X-axis and Y-axis of the scabbed wound and calculating the area of the remaining scab. At the time of wound closure, animals were sacrificed and duplicate 6 mm skin punches were collected from wounded and healed skin. One biopsy was fixed in 10% buffered formalin and used for histological analysis. The other biopsy was put in organ culture for 3 days. […]
Analysis of Type I Collagen: Organ culture fluids were assayed for type I collagen by Western blot analysis. Briefly, organ culture fluids representing an equal quantity of protein were resolved using 8% SDS-PAGE under non-reducing conditions and transferred to nitrocellulose membranes. […] The membranes were then washed with TTBS and bound antibody was detected using the Phototope-HRP western detection kit (Cell Signaling Technologies, Inc., Danvers, Mass.). Images were scanned, digitized, and quantified using NIH image analysis software.
At the time of wound closure, skin from the center of the initial wound (most recently healed skin) was obtained and incubated in organ culture for three days. Organ culture fluids were collected at the end of the incubation period and analyzed for type I collagen and MMP-2/MMP-9. […]

MMP-2 [4] = test: MMP-2 (gelatin zymography) in organ culture fluid of skin from topically treated healthy hairless rats; assay type: in vivo, rat; settings: 10% curcumin / 3% ginger extract topical, skin in organ culture 3 days, compared to control skin
Description: as §1, §2

MMP-2 [5] = test: MMP-2 (gelatin zymography) in organ culture fluid of healed wound skin, Temovate rat model; assay type: in vivo; settings: botanical treatment of Temovate-treated rats
Description: as §1, with “At the end of the 3-day incubation period, the organ culture fluid was collected and assayed for soluble type I collagen by western blotting and MMP-2 and -9 gelatin zymography (see below).” left out
(§3) Analysis of Metalloproteinases: MMP-2 and MMP-9: Gelatin-embedded enzymography (zymography) was used to assess levels of latent and active MMP-2 and MMP-9 in organ culture fluids. […] After electrophoresis under non-reducing conditions to separate proteins and overnight incubation to allow for substrate digestion, zones of hydrolysis were identified as “holes” in the stained gels and quantified. Values for latent and active MMPs-2 and -9 bands were obtained following digitization and quantification. […]

MMP-9 [6] = test: MMP-9 (gelatin zymography) in organ culture fluid of healed wound skin, Temovate rat model; assay type: in vivo; settings: botanical treatment of Temovate-treated rats
Description: as §1, with “At the end of the 3-day incubation period, the organ culture fluid was collected and assayed for soluble type I collagen by western blotting and MMP-2 and -9 gelatin zymography (see below).” left out
as §3

type I collagen [7] = test: Soluble type I collagen (Western blot) in organ culture fluid of skin from topically treated healthy hairless rats; assay type: in vivo, rat; settings: 10% curcumin / 3% ginger extract topical, skin in organ culture 3 days, compared to control skin
Description: as §1

MMP-1 [8] = test: MMP-1 levels in human skin organ culture fluid; assay type: cell-based; settings: increasing amounts of curcumin added to 1 μg per mL ginger extract
Description: Human skin was incubated in organ culture under control conditions (Ca^2+-supplemented KBM culture medium) or in the same culture medium with 1 μg per mL ginger extract. Increasing amounts of curcumin were added. […] Human skin was incubated in organ culture under control conditions (Ca^2+-supplemented KBM culture medium) or in the same culture medium with 1 μg per mL ginger extract. Increasing amounts of curcumin were added.

MMP-1 [9] = test: MMP-1 levels in human dermal fibroblast culture fluid; assay type: cell-based; settings: increasing amounts of curcumin added to 1 μg per mL ginger extract
Description: Fibroblasts were incubated under control conditions (Ca^2+-supplemented KBM culture medium) or in the same culture medium supplemented with 1 μg per mL ginger extract. Increasing amounts of curcumin (X-axis) were added. […] Fibroblasts were incubated under control conditions (Ca^2+—supplemented KBM culture medium) or in the same culture medium supplemented with 1 μg per mL ginger extract. Increasing amounts of curcumin were added.

[10] = tested on: abrasion wounds in skin of corticosteroid-treated hairless rats; test: Abrasion wound healing in corticosteroid-treated hairless rats; assay type: in vivo, rat; settings: 21 days pretreatment, then 15 days with Temovate; 10% curcumin, 3% ginger extract; compared to Temovate plus vehicle alone
Description: Rat Model: Hairless rats were treated for 21 days topically over the back and flank with 500 μL of solutions containing 10% curcumin, 3% ginger extract or the combination of the two. Vehicle alone served as control. During the treatment phase, animals were examined daily for changes in the gross appearance of the skin. After the initial 21-day pretreatment period, rats were treated with Temovate® (clobetasol propionate) cream along with the botanicals for an additional 15 day period. Temovate® (0.05% solution of clobetasol propionate in cream base) was obtained from Glaxo Smith Kline (Philadelphia, Pa.). Temovate® was applied in the morning and botanicals were applied in the evening. At the end of the treatment period, abrasion wounding was performed. […] A pre-measured circular area, approximately 6 cm in diameter, was scrubbed with a stiff-nylon bristle brush lightly wetted with acetone and concomitantly abraded with a piece of course sanding sponge. […]
Wounding was performed under sterile conditions in a laminar flow hood. Wound size was determined daily by measuring the X-axis and Y-axis of the scabbed wound and calculating the area of the remaining scab. […]
Statistical Analysis: Data were analyzed using one-way analysis of variance (ANOVA) followed by the Bonferroni posttest for selected pairs (GraphPad Prism version 4.00 for Windows, GraphPad Software, San Diego, Calif.). […]

[11] = tested on: skin of healthy hairless rats; test: Topical treatment of healthy hairless rats: gross appearance and irritation of the skin; assay type: in vivo, rat; settings: topical once daily for 14 days, 10% curcumin and 3% ginger extract alone and in combination
Description: The botanicals were dissolved in a vehicle (70% ethanol and 30% propylene glycol) at 10.0% for curcumin and 3% for the ginger extract. The concentrations chosen for the two botanicals were based on results from preliminary in vitro studies and in vivo studies with healthy hairless rats.
Based on in vitro experiments in which a wide range of concentrations of both curcumin and the ginger extract were tested, healthy hairless rats were treated topically once daily for 14 days with solutions containing 10% curcumin and 3% ginger extract, alone and in combination. Control rats were treated with vehicle alone. Animals were monitored closely during the treatment period of any visible changes in gross appearance of the skin. […] At the end of the treatment period, skin from the treated site of each animal was obtained. The skin was incubated in organ culture for 3 days.

Question: For `CCCCCC(O)CC(=O)CCc1ccc(OC)c(O)c1` (stereo not shown) [6-gingerol, 5-hydroxy-1-(3-hydroxy-4-methoxyphenyl)decan-3-one], which “in vitro activities compared with the crude extract” value [1] is on record?
Answer: The value was “same in vitro activities as the crude extract itself”.

Question: For `COc1cc(/C=C/C(=O)CC(=O)/C=C/c2ccc(O)c(OC)c2)ccc1O` [curcumin, (1E,6E)-1,7-bis(4-hydroxy-3-methoxyphenyl)hepta-1,6-diene-3,5-dione], which “MMP-9 in organ culture fluid” value (MMP-9 [2]) is on record?
Answer: The value was “decreased”.

Question: What about the “ginger extract-induced keratinocyte growth” value (epidermal keratinocytes) of the same compound?
Answer: The value was “suppresses”.

Question: What about the “type I collagen in organ culture fluid” value (type I collagen [3]; botanicals prior to and during Temovate treatment, compared to rats treated with Temovate and vehicle) of the same compound?
Answer: The value was “elevated”.

Question: And the “type I collagen in organ culture fluid” value (type I collagen [3]; treatment along with Temovate, compared to control culture fluids from rats not exposed to Temovate)?
Answer: The value was “higher”.

Question: What about the “MMP-2 in organ culture fluid” value (MMP-2 [4]) of the same compound?
Answer: The value was “decrease”.

Question: What about the “MMP-2 level in organ culture fluid” value (MMP-2 [5]) of the same compound?
Answer: Its value is “reduced”.

Question: And the “MMP-9 level in organ culture fluid” value (MMP-9 [6])?
Answer: Its value is “reduced”.

Question: What about the “soluble type I collagen in organ culture fluid” value (type I collagen [7]) of the same compound?
Answer: Its value is “increased”.

Question: What about the “ginger extract-induced MMP-1 expression in human skin organ culture fluid” value (MMP-1 [8]) of the same compound?
Answer: The value was “inhibited”.

Question: And the “ginger extract-induced MMP-1 expression in fibroblast culture fluid” value (MMP-1 [9])?
Answer: The value was “inhibited”.

Question: What about the “wound closure (percent of wound healed)” value [10] of the same compound?
Answer: The value was “improved”.

Question: What about the skin irritation [11] of the same compound?
Answer: Its skin irritation is “No irritation”.
